Data: ChEMBL document CHEMBL3507680, “University of Dundee, Gates Library screen for HepG2 cell viability”

Experiment: Human HepG2 cell viability assay in 384 well format
Assay type: toxicity, cell-based
Design: dose 125 nL, time 70.5 hour; concentration not given beside the values
Settings: HepG2 cells, read-out: Inhibition

| SMILES | cytotoxicity at 70.5 h [%] |
| --- | --- |
| Cc1ccn(-c2ccc(NCc3ccnc(N4CCCCC4)c3)nn2)n1 | -10.5 |
| O=C(COc1ccccc1C(F)(F)F)NCCNC(=O)c1ccccc1 | 12.9 |
| CC(C)c1noc(CS(=O)(=O)CC(=O)NCc2cccs2)n1 | -9.72 |
| COc1ccc(CC(=O)NC(CC(=O)O)c2ccc(F)cc2)cc1OC (stereo not drawn) | -5.71 |
| COc1ccccc1CC(=O)NC(CC(=O)O)c1ccc(F)cc1 (stereo not drawn) | -8.41 |
| CC(Sc1nnc(C2CC2)n1CC(N)=O)c1ccc(F)c(Cl)c1 (stereo not drawn) | -6.61 |
| CC(Sc1nnc(C2CC2)n1CC(N)=O)c1ccc(Cl)cc1 (stereo not drawn) | -8.5 |
| NC(=O)C(NC(=O)c1cc(Br)c[nH]1)c1ccccc1 (stereo not drawn) | 10.8 |
| CC(C)CC(C#N)NC(=O)c1ccc(Oc2cccnc2)cc1 (stereo not drawn) | -5.49 |
| Cc1ccn(-c2ccc(NCc3ccccc3F)nn2)n1 | 13.7 |
| CC(C)Sc1ccc(C(C)NC(=O)Cn2cccnc2=O)cc1 (stereo not drawn) | -15.1 |
| O=c1[nH]c(N2CCN(C3CC3)CC2)nc2c1cnn2-c1ccccc1 | -6.97 |
| Cc1ccc(CNC(=O)c2oc3ccccc3c2CN(C)C)n1C | -6.83 |
| N#Cc1ccc(F)c(CNC(=O)NCCC(=O)NC2CCCC2)c1 | -3.12 |
| CC(C)(C)C(C#N)NC(=O)c1ccc(Oc2cccnc2)cc1 (stereo not drawn) | -8.31 |
| Cc1nc(C2CCCN(C(=O)CCCOc3cccc(F)c3)C2)no1 (stereo not drawn) | -16.6 |
| O=C(NC1CCN(CC2CC2)C1)c1ccc(N2CCC(O)CC2)cc1 (stereo not drawn) | -7.24 |
| CNc1nc(CNC(=O)Nc2ccc(OC(C)C)cc2F)cs1 | -5.89 |
| CN1CCCC(NC(=O)c2ccc(C(=O)c3cc[nH]c3)cc2)C1 (stereo not drawn) | -16.9 |
| Cn1cc(C(=O)N2CCOc3ccccc32)ccc1=O | -12.6 |
| Cc1ccc2c(c1)OCCN2C(=O)c1ccc(=O)n(C)c1 | -5.4 |
| O=C(O)c1ccc(CCNC(=O)C2(O)Cc3ccccc3C2)cc1 | -12.7 |
| COC(=O)CCCNC(=O)COc1ccccc1C(F)(F)F | -6.88 |
| CC(C)N(CC1CCCN(CC(N)=O)C1)C(=O)OC(C)(C)C (stereo not drawn) | -12.8 |

| SMILES | cytotoxicity at 70.5 h [%] |
| --- | --- |
| CCC(CC)CNC(=O)N(C)C(C)c1ccccn1 (stereo not drawn) | 12.3 |
| CC(C)c1noc(CCCC(=O)NCCOc2ccccc2)n1 | -8.16 |
| CCN(CC)S(=O)(=O)CCNC(=O)N(C)C(C)c1ccccn1 (stereo not drawn) | -8.05 |
| Cc1nc(CNC(=O)c2oc3ccccc3c2CN(C)C)oc1C | -8.24 |
| Cc1nc(C2CCCN2C(=O)COCCOc2ccccc2)no1 (stereo not drawn) | 8.74 |
| N#CCSCCCN1CCCC(C(=O)N2CCCCCC2)C1 (stereo not drawn) | -4.07 |
| Cc1nc(C2CCCN2C(=O)CCCOc2cccc(F)c2)no1 (stereo not drawn) | -4.99 |
| Cn1cc(CN2CCN(Cc3nccn3C)CC2)cn1 | 29.1 |
| CC(C)c1csc(C2CCCN(C(=O)c3ccc(=O)n(C)n3)C2)n1 (stereo not drawn) | 1.7 |
| CCn1c(C)nnc1CN(C)C1CCN(Cc2cnc(C)cn2)C1 (stereo not drawn) | -0.885 |
| Cc1ccc(CNCc2nnc3n2CC(C(F)(F)F)CC3)cc1 (stereo not drawn) | 1.57 |
| COc1ccccc1CNC(=O)C1=NN(c2ccc(C)cc2)C(=O)CN1 | -4.66 |
| Cc1noc(C2CCN(C(=O)c3c(C)noc3C)CC2)n1 | -10.7 |
| CC(O)CN1CCN(C(=O)c2cn(-c3ccccc3Cl)nn2)CC1 (stereo not drawn) | -9.71 |
| CC(NC1(CNC(=O)CC(C)(C)C)CCOCC1)c1ccccc1 (stereo not drawn) | -7.83 |
| CC(NC1(CNC(=O)Cn2cccn2)CCOCC1)c1ccccc1 (stereo not drawn) | -6.45 |
| CCc1nc(CN2CCN(C(=O)COCc3ccccc3)CC2)no1 | -7.36 |
| Cc1cc(C)n(-c2cncc(NCCNC(=O)C(C)C)n2)n1 | -3.05 |
| Cc1ccc(NC(=O)NC(C)c2nc[nH]n2)s1 (stereo not drawn) | -8.03 |
| Cc1ccc(C2CSCCN2C(=O)C2=CCCC2)o1 (stereo not drawn) | -6.86 |
| COc1ccc(NC(=O)NC(C)c2nc[nH]n2)cc1 (stereo not drawn) | -0.0192 |
| O=c1ccc(-c2ccccc2F)nn1CCN1CCCS1(=O)=O | -2.96 |
| Cc1cc(CN(C)Cc2cc3c(cc2OC(F)F)OCO3)on1 | -6.95 |
| CN(Cc1cc2c(cc1OC(F)F)OCO2)Cc1nccn1C | -3.97 |

| SMILES | cytotoxicity at 70.5 h [%] |
| --- | --- |
| CCC(C)(NCC(=O)Nc1ccccc1)c1nc(C)cs1 (stereo not drawn) | -4.87 |
| Cc1nn(C)c(N(C)C)c1CNCc1cccnc1 | 16.2 |
| Cn1cc(CNCCn2cccn2)c(-c2cccnc2)n1 | -4.81 |
| CN(CC1CC1)C(=O)CN(Cc1cccc(O)c1)C1CCC(O)CC1 (stereo not drawn) | -6.77 |
| Cn1ncc2c(NCC3CCCN3c3cccnn3)ncnc21 (stereo not drawn) | -3.62 |
| O=C(CCc1ccccc1F)NS(=O)(=O)c1ccc2c(c1)OCCO2 | 21.2 |
| COCc1nc(C(=O)N2CCCC2c2ccncc2)cs1 (stereo not drawn) | -1.03 |
| COc1ccccc1OCCNCCn1cccn1 | -10.7 |
| Cc1cnn(CC(C)NCc2csc(-c3cccs3)n2)c1 (stereo not drawn) | -22.3 |
| Clc1ccc(OCCNCCn2cccn2)cc1 | 22.1 |
| COCc1nc(C(=O)N2CCCC2c2cccc(C)c2)cs1 (stereo not drawn) | -8.14 |
| Cc1ccc(-c2nc(CN3CCN(C(=O)C4CC4)CC3)cs2)o1 | -5.72 |
| Cc1ccc(-c2nc(CN3CCN(CC(=O)N(C)C)CC3)cs2)o1 | -5.37 |
| CC(NC(=O)NCCCN(C)S(C)(=O)=O)c1ccc(F)cc1 (stereo not drawn) | 16.8 |
| CCOC(=O)C1CCN(Cc2csc(-c3ccc(C)o3)n2)CC1 | -3.12 |
| COc1c(CNCc2ccnc(N3CCCCC3)c2)c(C)nn1C | 24.3 |
| Cc1ccc(C(=O)N2CCC(c3n[nH]c(C4CC4)n3)CC2)cc1F | -7.97 |
| CN(C)CC(=O)N1CCN(C(=O)c2cccc3[nH]ncc23)CC1 | -8.09 |
| CCc1cccc(N2CCC(NC(=O)c3ccncc3)CC2)c1 | -4.49 |
| Cc1cccc(C(=O)N2CCN(C(=O)Cc3ccccn3)CC2)c1C | -2.92 |
| CCc1nc(CN2CCN(CC(O)c3ccccc3)CC2)no1 (stereo not drawn) | 17.3 |
| CCc1noc(CN2CCN(CC(O)c3ccccc3)CC2)n1 (stereo not drawn) | -3.73 |
| CC(C)c1nc(CN2CCN(CC(O)c3ccccc3)CC2)no1 (stereo not drawn) | -4.77 |
| Cc1cnn(CC(C)NCc2csc(-c3ncccn3)n2)c1 (stereo not drawn) | -2.17 |

| SMILES | cytotoxicity at 70.5 h [%] |
| --- | --- |
| CCc1cccc(N2CCC(NC(=O)CCNC(N)=O)CC2)c1 | -6.16 |
| Cc1ccc(NC2CCN(C(=O)COc3cccc(F)c3)CC2)nn1 | 43.9 |
| Cc1nccn1C1CCCN(C(=O)c2ccnc(-n3ccnc3)c2)C1 (stereo not drawn) | 10.7 |
| O=C(CCc1ccco1)N1CCCN(Cc2cscn2)CC1 | 11.4 |
| COc1cccc(NC(=O)NCC(O)c2ccc(F)cc2F)c1 (stereo not drawn) | -6.35 |
| CC1CCCN(S(=O)(=O)NCc2ccccc2Cn2cncn2)C1 (stereo not drawn) | -10.6 |
| CNC(=O)N1CCC(NC(=O)c2cnn(C)c2)CC1 | -11.2 |
| COc1cc(/C=C/c2ncc(C(=O)O)s2)cc(Cl)c1OC | 18.2 |
| CCOc1c(Cl)cc(/C=C/c2ncc(C(=O)O)s2)cc1OC | -18.4 |
| CCc1noc(CN2CCC(C(=O)Nc3cnn(CC)c3)CC2)n1 | -10.6 |
| CCCc1noc(CN2CCC(C(=O)Nc3cnn(CC)c3)CC2)n1 | -14.6 |
| O=C(c1ccnc(-n2ccnc2)c1)N1CCCC(n2ccnc2)C1 (stereo not drawn) | -15 |
| Cc1nc(C)n(CC2CCCN2CC(=O)Nc2cc(C)on2)n1 (stereo not drawn) | -8.96 |
| Cc1nc(C)n(CC2CCCCN2CC(=O)Nc2cc(C)on2)n1 (stereo not drawn) | -13.4 |
| Cc1ccc(NC2CCN(C(=O)CCOCC(F)(F)F)CC2)nn1 | -2.83 |
| Cc1cc(NC(=O)CCN2CCCCC2Cn2cncn2)no1 (stereo not drawn) | -15.1 |
| Cc1cc(C)n(CC2CCCCN2CCC(=O)Nc2cc(C)on2)n1 (stereo not drawn) | -10.3 |
| Cc1nn(C)c(Cl)c1C1CCCN1CC(=O)NCc1ccco1 (stereo not drawn) | -8.19 |
| Cc1cnc(C(=O)N2CCCC(n3cncn3)C2)cn1 (stereo not drawn) | -4.15 |
| CC(=O)Nc1nc(C(=O)N2CCCC(n3cncn3)C2)cs1 (stereo not drawn) | -11.2 |
| Cn1cc(C(=O)CC2CCCN2C(=O)c2coc3ccccc23)cn1 (stereo not drawn) | -12.8 |
| Cn1cc(C(=O)CC2CCCN2C(=O)c2c[nH]c3ccccc23)cn1 (stereo not drawn) | -13.9 |
| Cn1cc(C(=O)CC2CCCN2C(=O)c2ccncc2F)cn1 (stereo not drawn) | -9.05 |
| Cc1nc(C)n(CC2CCCN(CCC(=O)Nc3cc(C)on3)C2)n1 (stereo not drawn) | -9.8 |

| SMILES | cytotoxicity at 70.5 h [%] |
| --- | --- |
| Cc1cnn(C2CCCN(C(=O)c3ccnc(-n4cncn4)c3)C2)c1 (stereo not drawn) | -7.22 |
| COCCOc1ccccc1C(=O)NCCN(C)C(C)C | 16.8 |
| CC(C)N1CCN(C(=O)C(C)n2cncn2)CC1 (stereo not drawn) | 5.67 |
| CC(C(=O)N1CCN(c2ncccn2)CC1)n1cncn1 (stereo not drawn) | -9.39 |
| CC(C(=O)N1CCOCC1)n1cncn1 (stereo not drawn) | -4.26 |
| Cc1ccc(-c2cnn(CC(=O)NC(C)C)c2)cc1 | -3.29 |
| COc1cc(CNCC2CNc3ccnn3C2)ccn1 (stereo not drawn) | -3.41 |
| c1cc(CNCC2CNc3ccnn3C2)cc(OC2CCCCC2)n1 (stereo not drawn) | -7.62 |
| Cc1cnn(CCC(=O)N2CCN(c3ccc(C#N)cn3)CC2)c1 | -3.08 |
| Cc1cc(C2CCCN2C(=O)NCc2c(C)cc(C)[nH]c2=O)on1 (stereo not drawn) | -7.29 |
| Cc1cc(C)c(CNC(=O)N2CCCC2c2cc(C)on2)c(=O)[nH]1 (stereo not drawn) | -7.12 |
| N#Cc1cccnc1N1CCCN(C(=O)CCn2cncn2)CC1 | -4.22 |
| CCN(CCNC(=O)c1cccc(C)c1C)C1CC1 | -4.1 |
| CC(C)Oc1ccccc1NC(=O)N1CCC(n2cncn2)CC1 | -3.08 |
| O=C1NCC(C(=O)Nc2ncc(Cc3ccc(F)cc3F)s2)N1 (stereo not drawn) | -3.7 |
| Cc1nccn1C1CCCN(C(=O)CCCNc2ncccn2)C1 (stereo not drawn) | -6.43 |
| CC1CN(C(=O)NCCNc2cnccn2)CCO1 (stereo not drawn) | 25.6 |
| CC(C)(C)c1cnc(CN2CCCC2Cn2cccn2)o1 (stereo not drawn) | -5.71 |
| Cc1nc(C)n(CC2CCCCN2CC(=O)Nc2ccncc2)n1 (stereo not drawn) | 16.8 |
| N#Cc1ccc(OCCN2CCc3c(ncn3C3CC3)C2)cc1 | 8.16 |
| CCc1nc(CN2CCCN(C(=O)C(C)COC)CC2)cs1 (stereo not drawn) | -2.68 |
| CCS(=O)(=O)c1ccccc1C(=O)NCc1ccnc(N(C)C)c1 | -11.2 |
